Laboratory results as given in PMC11012124, “Synthesis of Novel Triazine-Based Chalcones and 8,9-dihydro-7H-pyrimido[4,5-b][1,4]diazepines as Potential Leads in the Search of Anticancer, Antibacterial and Antifungal Agents” (International Journal of Molecular Sciences, 2024).

Key:
[1] = tested on: 60 cancer cell lines; assay: NCI-60 one-dose screen (10 μM); assay type: cell-based; conditions: Homo sapiens; one dose of 10 μM, mean over 60 cancer cell lines; read-out: Mean Growth Percent (MGP)
From the text: Additionally, the mean of the growth percentages (MGP) of each compound against all the 60 cancer cell lines is also reported, which is used as one of the selection criteria to continue with tests at five concentration doses.

[2] = tested on: MOLT-4; assay: cells; conditions: Homo sapiens, MOLT-4, 48 h
[3] = tested on: RPMI-8226; assay: cells; conditions: Homo sapiens, RPMI-8226, 48 h
[4] = tested on: A549/ATCC; assay: cells; conditions: Homo sapiens, A549, 48 h
[5] = tested on: EKVX; assay: cells; conditions: Homo sapiens, 48 h
[6] = tested on: HOP-62; assay: cells; conditions: Homo sapiens, HOP-62, 48 h
[7] = tested on: HOP-92; assay: cells; conditions: Homo sapiens, HOP-92, 48 h
[8] = tested on: NCI-H226; assay: cells; conditions: Homo sapiens, NCI-H226, 48 h
[9] = tested on: NCI-H322M; assay: cells; conditions: Homo sapiens, 48 h
[10] = tested on: COLO 205; assay: cells; conditions: Homo sapiens, COLO 205, 48 h
[11] = tested on: HCC-2998; assay: cells; conditions: Homo sapiens, HCC 2998, 48 h
[12] = tested on: HCT-116; assay: cells; conditions: Homo sapiens, HCT-116, 48 h
[13] = tested on: HCT-15; assay: cells; conditions: Homo sapiens, HCT-15, 48 h
[14] = tested on: HT29; assay: cells; conditions: Homo sapiens, HT-29, 48 h
[15] = tested on: SF-268; assay: cells; conditions: Homo sapiens, SF-268, 48 h
[16] = tested on: SF-295; assay: cells; conditions: Homo sapiens, SF-295, 48 h
[17] = tested on: SF-539; assay: cells; conditions: Homo sapiens, SF-539, 48 h
[18] = tested on: SNB-19; assay: cells; conditions: Homo sapiens, SNB-19, 48 h
[19] = tested on: SNB-75; assay: cells; conditions: Homo sapiens, SNB-75, 48 h
[20] = tested on: U251; assay: cells; conditions: Homo sapiens, U-251, 48 h
[21] = tested on: LOX IMVI; assay: cells; conditions: Homo sapiens, 48 h
[22] = tested on: M14; assay: cells; conditions: Homo sapiens, M14, 48 h
[23] = tested on: SK-MEL-5; assay: cells; conditions: Homo sapiens, SK-MEL-5, 48 h
[24] = tested on: UACC-257; assay: cells; conditions: Homo sapiens, UACC-257, 48 h
[25] = tested on: UACC-62; assay: cells; conditions: Homo sapiens, UACC-62, 48 h
[26] = tested on: 786-0; assay: cells; conditions: Homo sapiens, 786-0, 48 h
[27] = tested on: A498; assay: cells; conditions: Homo sapiens, A498, 48 h
[28] = tested on: ACHN; assay: cells; conditions: Homo sapiens, 48 h
[29] = tested on: RXF 393; assay: cells; conditions: Homo sapiens, RXF 393, 48 h
[30] = tested on: UO-31; assay: cells; conditions: Homo sapiens, UO-31, 48 h
[31] = tested on: PC-3; assay: cells; conditions: Homo sapiens, PC-3, 48 h
[32] = tested on: MDA-MB-231/ATCC; assay: cells; conditions: Homo sapiens, MDA-MB-231, 48 h
[33] = tested on: HS 578T; assay: cells; conditions: Homo sapiens, 48 h
[34] = tested on: BT-549; assay: cells; conditions: Homo sapiens, BT-549, 48 h
[35] = tested on: MDA-MB-468; assay: cells; conditions: Homo sapiens, MDA-MB-468, 48 h

Nc1nc(N)c2c(n1)NC(c1ccc(Cl)cc1)CC(c1ccc(Nc3nc(NCCO)nc(Nc4ccc(Cl)cc4)n3)cc1)=N2 (centres unmarked) [33e]
activity at 10 µM [1]: 30.5% | GI50 [2]: 0.79 µM | CC50 ([2]; read-out: LC50): > 100 µM | GI50 [3]: 1.44 µM | GI50 [4]: 4.12 µM | CC50 ([4]; read-out: LC50): > 100 µM | GI50 [5]: 2.01 µM | CC50 ([5]; read-out: LC50): 28.7 µM | GI50 [6]: 2.83 µM | CC50 ([6]; read-out: LC50): 34.5 µM | GI50 [7]: 1.29 µM | CC50 ([7]; read-out: LC50): 7.54 µM | GI50 [8]: 6.47 µM | CC50 ([8]; read-out: LC50): > 100 µM | GI50 [9]: 2.02 µM | CC50 ([9]; read-out: LC50): 16.9 µM | GI50 [10]: 1.51 µM | CC50 ([10]; read-out: LC50): 8.55 µM | GI50 [11]: 1.44 µM | CC50 ([11]; read-out: LC50): 5.36 µM | GI50 [12]: 1.4 µM | CC50 ([12]; read-out: LC50): 5.19 µM | GI50 [13]: 1.29 µM | CC50 ([13]; read-out: LC50): 6.09 µM | GI50 [14]: 1.7 µM | CC50 ([14]; read-out: LC50): 7.96 µM | GI50 [15]: 4.14 µM | CC50 ([15]; read-out: LC50): > 100 µM | GI50 [16]: 1.73 µM | CC50 ([16]; read-out: LC50): 7.76 µM | GI50 [17]: 1.68 µM | CC50 ([17]; read-out: LC50, SF-539, 48 h): 6.56 µM | GI50 [18]: 1.99 µM | CC50 ([18]; read-out: LC50): 21.4 µM | GI50 [19]: 1.59 µM | CC50 ([19]; read-out: LC50): 9.94 µM | GI50 ([20]; U251, 48 h): 1.47 µM | CC50 ([20]; read-out: LC50): 5.81 µM | GI50 [21]: 1.45 µM | CC50 ([21]; read-out: LC50, LOX IMVI, 48 h): 5.63 µM | GI50 [22]: 1.9 µM | CC50 ([22]; read-out: LC50): 10.5 µM | GI50 [23]: 1.48 µM | CC50 ([23]; read-out: LC50): 5.3 µM | GI50 [24]: 1.91 µM | CC50 ([24]; read-out: LC50): 7.32 µM | GI50 [25]: 2.03 µM | CC50 ([25]; read-out: LC50): 9.06 µM | GI50 [26]: 1.55 µM | CC50 ([26]; read-out: LC50): 5.96 µM | GI50 [27]: 5.9 µM | CC50 ([27]; read-out: LC50): 44.5 µM | GI50 [28]: 4.69 µM | CC50 ([28]; read-out: LC50): > 100 µM | GI50 [29]: 1.54 µM | CC50 ([29]; read-out: LC50): 5.73 µM | GI50 [30]: 3.1 µM | CC50 ([30]; read-out: LC50): > 100 µM | GI50 [31]: 1.93 µM | CC50 ([31]; read-out: LC50): > 100 µM | GI50 [32]: 1.75 µM | CC50 ([32]; read-out: LC50): 8.82 µM | GI50 [33]: 2.22 µM | CC50 ([33]; read-out: LC50): > 100 µM | GI50 [34]: 2.25 µM | CC50 ([34]; read-out: LC50): 23.5 µM | GI50 [35]: 1.39 µM | CC50 ([35]; read-out: LC50): 5.6 µM
